Columns and labels:
[1] = test system: caterpillars of the armyworm (Spodoptera frugiperda); experiment: Spodoptera frugiperda test (cabbage leaves, immersion); type: in vivo; settings: cabbage leaves immersed
Protocol: (§1) An appropriate preparation of active compound is prepared by mixing 1 part by weight of active compound with the stated amounts of solvent and emulsifier and diluting the concentrate with emulsifier-containing water to the desired concentration.
Cabbage leaves (Brassica oleracea) are treated by immersion into a preparation of active compound at the desired concentration and, are populated with caterpillars of the armyworm (Spodoptera frugiperda) while the leaves are still wet.
After the desired time the effect in % is determined. 100% means that all of the caterpillars have been killed; 0% means that no caterpillars have been killed.
Cabbage leaves (Brassica oleracea) are treated by immersion into a preparation of active compound at the desired concentration and are populated with caterpillars of the armyworm (Spodoptera frugiperda) while the leaves are still wet.

Heliothis virescens eggs = experiment: Heliothis virescens test; type: in vivo; settings: 300 ppm; eggs treated
Protocol: (§2) An appropriate preparation of active compound is prepared by mixing the active compound with the stated amounts of solvent and diluting the concentrate with […] water to the desired concentration.
The Heliothis virescens eggs are treated with a preparation of active compound at the desired concentration.
(§3) After the desired time the effect in % is determined. 100% means that all of the eggs/larvae have been killed; 0% means that no eggs/larvae have been killed.

Aedes aegypti larvae = experiment: Aedes aegypti test; type: in vivo; settings: 30 ppm; larvae treated
Protocol: as §2
The Aedes aegypti larvae are treated with a preparation of active compound at the desired concentration.
After the desired time the effect in % is determined. 100% means that all of the Aedes aegypti have been killed; 0% means that no Aedes aegypti have been killed.

[2] = test system: Diabrotica undecimpunctata eggs; experiment: Diabrotica undecimpunctata test; type: in vivo; settings: 300 ppm; eggs treated
Protocol: as §2
The Diabrotica undecimpunctata eggs are treated with a preparation of active compound at the desired concentration.
as §3

Myzus persicae = Myzus persicae test; type: in vivo; settings: 30 ppm; preparation provided for consumption
Protocol: as §2
The Myzus persicae is provided with a preparation of active compound at the desired concentration for consumption.
After the desired time the effect in % is determined. 100% means that all of the aphids have been killed; 0% means that no aphids have been killed.

[3] = log P determination by HPLC on reverse-phase column (EEC Directive 79/831 Annex V.A8); type: physicochemical; settings: HPLC on reverse-phase column
In short: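 Log P was derived from retention times by linear interpolation between successive unbranched alkan-2-one standards (C3–C16). The standards and samples ran on a C18 reverse-phase column at 43 °C with a 10→95% acetonitrile gradient in 0.1% formic acid (pH 2.7). The method follows EEC Directive 79/831 Annex V.A8.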

[4] = test system: larvae of the leafminer fly (Liriomyza trifolii); experiment: Liriomyza trifolii test; type: in vivo; settings: 500 ppm; infested bean leaf discs sprayed
Protocol: as §1
Bean leaf discs (Phaseolus vulgaris) infested by larvae of the leafminer fly (Liriomyza trifolii) are sprayed with a preparation of active compound at the desired concentration.
After the desired time the effect in % is determined. 100% means that all of the leafminer flies have been killed; 0% means that no leafminer flies have been killed.

Row | Compound | Kill level after 7 d in % ([1]; 100 g/ha) [%] | Kill level after 6-7 d in % (Heliothis virescens eggs) [%] | Kill level after 2-4 d in % (Aedes aegypti larvae) [%] | Kill level after 2-5 d in % [2] [%] | Kill level after 6-7 d in % (Myzus persicae) [%] | logP [3] | Kill level after 7 d in % ([1]; 0.8 g/ha) [%] | Kill level after 7 d in % [4] [%] | Kill level after 7 d in % ([1]; 4 g/ha) [%]
1 | Cc1cc(Cl)cc(C(=O)NC(C)C)c1NC(=O)c1cc(Cn2cc(Cl)c(C(F)(F)F)n2)nn1-c1ncccc1Cl [I-1-15] | 100 | 100 | 100 | 100 | 100 | 3.85 | – | – | –
2 | Cc1cc(Br)cc(C(=O)NC(C)C)c1NC(=O)c1cc(Cn2cc(C(F)(F)C(F)(F)F)c(C(F)(F)C(F)(F)F)n2)nn1-c1ncccc1Cl [I-1-13] | 100 | 100 | 100 | 100 | 100 | 4.98 | – | – | –
3 | Cc1cc(Cl)cc(C(=O)NC(C)C)c1NC(=O)c1cc(Cn2cc(I)c(C(F)(F)C(F)(F)F)n2)nn1-c1ncccc1Cl [I-1-14] | 100 | 100 | 100 | 100 | 100 | 4.29 | – | – | –
4 | CNC(=O)c1cc(Cl)cc(C)c1NC(=O)c1cc(Cn2cc(C(F)(F)C(F)(F)F)c(C(F)(F)C(F)(F)F)n2)nn1-c1ncccc1Cl [I-1-3] | 100 | – | – | – | – | 4.39 | 100 | 98 | –
5 | CNC(=O)c1cc(Cl)cc(C)c1NC(=O)c1cc(Cn2cc(Cl)cn2)nn1-c1ncccc1Cl [I-1-4] | 100 | – | – | – | – | 2.54 | – | 95 | –
6 | Cc1cc(Br)cc(C(=O)NC(C)C)c1NC(=O)c1cc(Cn2nc(C(F)(F)F)nc2C(F)(F)F)nn1-c1ncccc1Cl [I-1-22] | 100 | – | – | – | – | 3.91 | – | 98 | 100

From patent US8101550B2, “Anthranilic acid diamide derivative with hetero-aromatic and hetero-cyclic substituents” (Bayer Cropscience AG, priority 2006, dated 2012)
